Assay results from patent US20260226046A1 (JIANGSU HANSOH PHARMACEUTICAL GROUP CO., LTD., priority 2023, published 2026).

Key:
[1] = Solubility determination of crystal form C of tromethamine salt; assay type: physicochemical; details: 37 °C, thermodynamic from solid
Protocol: 1 to 2 mg of compound 28 was weighed into a 1.5 mL liquid phase vial, then 1 mL of pH buffer, artificial simulated gastric fluid (FaSSGF), artificial fasted-state simulated intestinal fluid (FaSSIF), artificial non-fasted-state simulated intestinal fluid (FeSSIF), and pure water were respectively added, and the mixture was placed on a constant temperature oscillator overnight at a temperature of 37 degrees. After 24 h, the sample solution was filtered with a 0.45 μm mixed water fiber filter membrane and then the filtrate was taken. The content was tested by HPLC. For the HPLC detection method, please refer to the solution stability analysis method in Section 1.2.

[2] = Thermodynamic stability experiment of crystal form (slurrying in solvents); assay type: physicochemical
Protocol: Through polycrystalline screening test, the relatively thermodynamically stable crystal form of salt was found.
The mixture was slurried at 40 degrees for 2 days, and centrifuged, and the solid was oven-dried in vacuo at 40 degrees overnight, and then XRD and other corresponding characterizations were performed.

O=C(O)c1ccc2nc(CN3CCC(c4cccc5c4OC(c4ccc(Cl)cc4F)C=C5)CC3)n(CC3CCO3)c2c1 (centres unmarked)
solubility at 24 h ([1]; aqueous buffer, USP Buffer pH 7.4, 37 degrees): 254 µg/mL
solubility at 24 h ([1]; FaSSIF, 37 degrees): 478 µg/mL
solubility at 24 h ([1]; FeSSIF, 37 degrees): 756 µg/mL
solubility at 24 h ([1]; water, H2O, 37 degrees): 66.4 µg/mL
XRD after slurrying for 2 days ([2]; EA 200 ul, 40 degrees): Crystal form C
XRD after slurrying for 2 days ([2]; EtOH 200 ul, 40 degrees): Crystal form C
XRD after slurrying for 2 days ([2]; Heptane 200 ul, 40 degrees): Crystal form C
XRD after slurrying for 2 days ([2]; IPA 200 ul, 40 degrees): Crystal form C
XRD after slurrying for 2 days ([2]; IPAC 200 ul, 40 degrees): Crystal form C
XRD after slurrying for 2 days ([2]; IPE 200 ul, 40 degrees): Crystal form C
XRD after slurrying for 2 days ([2]; MTBE 200 ul, 40 degrees): Crystal form C
XRD after slurrying for 2 days ([2]; hexane 200 ul, 40 degrees): Crystal form C
Stability of crystal form (in words) ([2]; slurried in solvents at 40 degrees for 2 days): very stable
Phenomenon after slurrying for 2 days ([2]; water 200 ul, 10 mg, 40 degrees): Dissolved clarification
